Where no end group is shown, it is not given here.
Tests used:
[1] = tested on: HeLa cells; assay: Evaluation of the cell membrane permeability by flow cytometry; type: cell-based, human; conditions: for cell membrane permeability, conclusion in words / MFI compared between examples, in words: HeLa cells, 10 μM, 20 hours; for cell membrane permeability, conclusion in words: FAM-labelled constructs; for MFI: mean fluorescent intensity of HeLa cells, 10 μM in culture medium, 0.5% DMSO, 20 hours at 37° C., FL2 detector
Protocol: The cell membrane permeability of peptides 1 to 4 was analyzed using HeLa cells (an established cell line derived from human cervical cancer cells) as the eukaryotic cells.
HeLa cells were cultured on DMEM (Dulbecco's modified Eagle's medium (Cat. No. 043-30085, from FUJIFILM Wako Pure Chemical Corporation)) containing 10% FBS (fetal bovine serum), which is a general culture medium.
The HeLa cells attached to the culture plate were washed with PBS, a 0.25% trypsin/EDTA solution was then added, and incubation was carried out for 3 minutes at 37° C. After this incubation, the aforementioned DMEM containing 10% FBS was added and the trypsin was inactivated, and the cells were then sedimented by carrying out centrifugal separation for 5 minutes at 150×g. The supernatant produced by the centrifugal separation was removed, and the aforementioned DMEM containing 10% FBS was added to the sediment (cell pellet) to prepare a cell suspension containing approximately 2×10^5 cells/mL. The cells were seeded (approximately 2×10^5 cells/well) by the addition of 1 mL of this cell suspension to the wells of a commercial 6-well plate (Iwaki). In addition, the 2 mM sample solution 1 was diluted with the aforementioned DMEM containing 10% FBS to prepare a sample solution 1 in which the sample 1 concentration was 20 μM. 1 mL of this 20 sample solution 1 was added to a well (i.e., the concentration of sample 1 in the culture medium in the wells was brought to 10 μM and the DMSO concentration was brought to 0.5%). The cells were subsequently incubated for 20 hours at 37° C. under the condition of 5% CO2.
After this 20-hour incubation, the culture supernatant was removed from a well and the cells in the well were washed twice with 1 mL PBS. 200 μL of a 0.25% trypsin/EDTA solution was then added to the well and incubation was carried out for 3 minutes at 37° C. After this incubation, the trypsin was inactivated by the addition of 400 μL of the aforementioned DMEM containing 10% FBS to the well, and the cells were subsequently recovered by transferring the cell suspension in a well to a tube. The well was then washed by the further addition of 600 μL PBS to the well. The cells that had remained in the well were recovered to the tube by transferring the PBS in the well to the tube. Centrifugal separation was run on this tube for 5 minutes using conditions of 4° C. and 210×g. After the centrifugal separation, the supernatant was removed, the sediment (cell pellet) was suspended (washed) with 1 mL of PBS, and centrifugal separation was carried out using the same conditions as before. After this procedure had been performed twice, the supernatant was removed to obtain cells (cell pellet) that had been cultured on a sample 1-containing culture medium.
The cell permeability of sample 1 was analyzed using the resulting cells (cell pellet) and a flow cytometer. An On-Chip Flow Cytometer (On-chip Biotechnologies Co., Ltd.) was used for the flow cytometer.
For this analysis, the cell pellet obtained as described above was suspended in 50 μL PBS. To this suspension was added 50 μL of Sample Buffer 2× for use with the indicated flow cytometer to prepare a cell suspension for submission to analysis.
Gating was performed using this flow cytometer based on forward scatter (FSC) and side scatter (SSC); the gating was set for the cell population that was the target of the analysis; and the fluorescent intensity was measured for the cell population within this gating. The analysis was performed so the cell count for this cell population reached at least 10,000 or more. The FL2 fluorescence detector (optimal detection wavelength around 543 nm) on the indicated flow cytometer, which could detect the fluorescence wavelength of FAM, was used to measure the fluorescent intensity. […]

[2] = tested on: cell membrane of eukaryotic cells; assay: Cell membrane permeability stated by the inventors, no data or method shown; type: cell-based; conditions: detailed data not provided
[3] = tested on: nucleolus; assay: Nucleolar transferability stated in the description, no method shown; type: cell-based

KKRTLRKKKRKKRWPC (Ac-KKRTLRKKKRKKRWPC) [Peptide 2, carrier peptide fragment; synthesized with N-terminal α-amino group acetylated]
cell membrane permeability, conclusion in words ([1]; listed as SEQ ID NO: 2): better cell membrane permeability than peptide composed of the amino acid sequence given by SEQ ID NO: 5

KKRTLRKSNRKKRWPC (Ac-KKRTLRKSNRKKRWPC) [Peptide 1, carrier peptide fragment; synthesized with N-terminal α-amino group acetylated]
cell membrane permeability, conclusion in words ([1]; listed as SEQ ID NO: 1): better cell membrane permeability than peptide composed of the amino acid sequence given by SEQ ID NO: 4

Ac-KKRTLRKKKRKKRWPC-FAM (Ac-KKRTLRKKKRKKRWPC-{FAM}) [Example 2, foreign substance introduction construct provided with peptide 2, FAM bonded to the C-terminal side]
MFI compared between examples, in words [1]: significantly higher MFI than Example 4 | MFI [1]: 121

KKRTLRKKKRKKR (Ac-KKRTLRKKKRKKR) [Peptide 4, variant of LIM kinase 2 NoLS; synthesized with N-terminal acetylation]
cell membrane permeability, statement in words [2]: higher cell membrane permeability than peptide comprising the amino acid sequence given by SEQ ID NO: 3 | nucleolar transferability, in words [3]: excellent nucleolar transferability

KKRTLRKSNRKKR (Ac-KKRTLRKSNRKKR) [Peptide 3, variant of LIM kinase 2 NoLS; synthesized with N-terminal acetylation]
cell membrane permeability, statement in words [2]: higher cell membrane permeability than peptide comprising the amino acid sequence given by SEQ ID NO: 3

Ac-KKRTLRKKKRKKR-FAM [Example 4]
MFI [1]: 24.3

5(6)-carboxyfluorescein [Example 5, reference compound]
MFI [1]: 10.3

FAM-KKRTLRKSNRKKR-CONH2 [Example 3′]
MFI [1]: 62

Ac-KKRTLRKSNRKKR-FAM [Example 3]
MFI [1]: 12.4

Ac-KKRTLRKSNRKKRWPC-FAM (Ac-KKRTLRKSNRKKRWPC-{FAM}) [Example 1, foreign substance introduction construct provided with peptide 1, FAM bonded to the C-terminal side]
MFI compared between examples, in words [1]: highest among Example 1, Example 3, and Example 3′ | MFI [1]: 87.5

From patent US20230280333A1, “FOREIGN SUBSTANCE INTRODUCTION CONSTRUCT AND USE THEREOF” (TOAGOSEI CO., LTD., priority 2022, published 2023)
